Assay results as given in patent publication US4843079A, “Fused heteroalkylene quinolinamines” (Hoechst-Roussel Pharmaceuticals, Inc., priority 1988, dated 1989).
Structures can show the parent of a compound that is named as a salt. Where two headings read alike, the source gives them in different places.

Tests used:
[1] = target: acetylcholinesterase (Homo sapiens, UniProt P22303); test: biochemical
[2] = system: scopolamine Induced Memory Deficit; test: Dark Avoidance Assay (scopolamine-impaired memory); format: in vivo; conditions: mice, retested 24 hours later
Experimental: This utility of the compounds of the present invention mentioned above can also be ascertained by determining the ability of these compounds to restore cholinergically deficient memory in the Dark Avoidance Assay. In this assay mice are tested for their ability to remember an unpleasant stimulus for a period of 24 hours. A mouse is placed in a chamber that contains a dark compartment; a strong incandescent light drives it to the dark compartment, where an electric shock is administered through metal plates on the floor. The animal is removed from the testing apparatus and tested again, 24 hours later, for the ability to remember the electric shock.
If scopolamine, an anticholinergic that is known to cause memory impairment, is administered before an animal's initial exposure to the test chamber, the animal re-enters the dark compartment shortly after being placed in the test chamber 24 hours later. This effect of scopolamine is blocked by an active test compound, resulting in a greater interval before re-entry in the dark compartment.
The results for an active compound are expressed as the percent of a group of animals in which the effect of scopolamine is blocked, as manifested by an increased interval between being placed in the test chamber and re-entering the dark compartment.

[3] = photometric method of Ellman et al., read-out: IC50, Cholinesterase Inhibition

acetylcholinesterase, sequence (P22303 32-614): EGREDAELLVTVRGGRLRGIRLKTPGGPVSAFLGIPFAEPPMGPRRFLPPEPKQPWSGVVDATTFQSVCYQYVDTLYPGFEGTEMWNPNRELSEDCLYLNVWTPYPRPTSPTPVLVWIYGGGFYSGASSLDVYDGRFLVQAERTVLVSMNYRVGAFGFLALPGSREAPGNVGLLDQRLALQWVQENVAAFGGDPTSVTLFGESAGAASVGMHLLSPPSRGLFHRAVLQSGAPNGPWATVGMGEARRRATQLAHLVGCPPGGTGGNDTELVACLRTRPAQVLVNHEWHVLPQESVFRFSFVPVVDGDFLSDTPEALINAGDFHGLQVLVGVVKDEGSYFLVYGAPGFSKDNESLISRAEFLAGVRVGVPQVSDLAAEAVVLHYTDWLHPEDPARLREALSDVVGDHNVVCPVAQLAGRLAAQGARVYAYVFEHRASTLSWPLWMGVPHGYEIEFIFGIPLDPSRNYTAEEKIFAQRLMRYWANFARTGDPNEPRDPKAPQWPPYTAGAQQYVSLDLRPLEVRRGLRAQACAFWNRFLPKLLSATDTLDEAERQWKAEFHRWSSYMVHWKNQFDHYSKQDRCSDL

Structure (SMILES) | IC50 [1, 3] [nM] | % of animals with scopolamine Induced Memory Deficit Reversed ([2]; dose 0.31 mg/kg body weight) [%] | further results
Cc1ccc2c(N)c3c(nc2c1)CCSC3 [10-amino-3,4-dihydro-7-methyl-1H-thiopyrano[4,3-b]quinoline] | 190 | – | –
Nc1c2c(nc3ccccc13)CCSC2 [10-amino-3,4-dihydro-1H-thiopyrano[4,3-b]quinoline] | 970 | – | % of animals with scopolamine Induced Memory Deficit Reversed ([2]; dose 0.16 mg/kg body weight): 27%
Nc1c2c(nc3ccccc13)CCS2 [9-amino-2,3-dihydrothieno[3,2-b]quinoline] | 440 | – | –
Nc1c2c(nc3ccccc13)CSC2 [9-Amino-1,3-dihydrothieno[3,4-b]quinoline] | 47 | 14 | –
CNC(=O)Oc1ccc2c(c1)[C@]1(C)CCN(C)[C@@H]1N2C [Physostigmine, reference compound] | – | 20 | –
Nc1c2c(nc3cc(C(F)(F)F)ccc13)CCSC2 [10-amino-3,4-dihydro-7-trifluoromethyl-1H-thiopyrano[4,3-b]quinoline] | – | – | IC50 [1]: 640 nM
c1ccc(CNc2c3c(nc4ccccc24)CCSC3)cc1 [10-benzylamino-3,4-dihydro-1H-thiopyrano[4,3-b]quinoline hydrochloride] | – | – | IC50 [1]: 3900 nM
Nc1c2c(nc3ccccc13)CCOC2 [10-Amino-3,4-dihydro-1H-pyrano[4,3-b]quinoline fumarate] | 200 | – | –
Nc1c2c(nc3cc(F)ccc13)CCSC2 [10-amino-3,4-dihydro-7-fluoro-1H-thiopyrano [4,3-b]quinoline] | 150 | 67 | –
